Test results reported in US20040248209A1, “Use of g protein-coupled receptor protein” (priority 2001, published 2004).

Columns and labels:
Assay type in all cases: cell-based
H7TMB56 [1] = molecular target: T1, H7TMB56 (Homo sapiens, UniProt Q96LA9); assay: internalization of H7TMB56-GFP fused protein in CHO cells, confocal microscope; conditions: 10^−6 M added to the medium
T1 construct: expressed in transfected cells
From the text: An expression plasmid was constructed to express a fused protein of Green Fluorescent Protein (GFP) cDNA isolated from jelly fish Auquorea victoria, fused to H7TMB56 at the C-terminus to fit the translation frame. In this case, a fragment excised out of GFP expression vector pQBI25 (Takara Shuzo Co., Ltd.) was used as GFP cDNA. In H7TMB56, its termination codon was modified by PCR to recognition sequence with restriction enzyme NheI, and the GFP fragment was ligated thereto, which was inserted into the expression vector pAKKO-111H described in EXAMPLE 1. The thus obtained plasmid of the H7TMB56 and GFP -fused protein expression vector was transfected to CHO cells by the following procedure. CHO cells were suspended in a growth medium [DMEM (Dulbecco's Modified Eagle Medium) (GIBCO BRL, Inc.) supplemented with 10% fetal bovine serum, and plated on a Lab-Tekii cover glass chamber with 4 chambers (Nalgen Nunc, Inc.) in a concentration of 0.6×10^5 cells/chamber. After incubation overnight at 37° C. in 5% CO2, transfection was performed. For transfection, Lipofectamine™ 2000 Reagent (GIBCO BRL, Inc., Inc.) was used. First, 2 μl of Lipofectamine™ 2000 Reagent was mixed with 50 μl of OPTI-MEM-I (GIBCO BRL, Inc.). […]

H7TMB56 [2] = molecular target: T1, H7TMB56; assay: intracellular cAMP production promoting activity in CHO cells stably expressing H7TMB56 (clone 22) versus mock cells; conditions: for intracellular cAMP production promoting activity, dose dependency: CHO cell clone highly expressing H7TMB56, FIG. 13; for agonist activity to H7TMB56 (cAMP production), specificity and dose dependency: CHO clone 22 versus mock cells, FIGS. 8 and 9; for cAMP production promoting activity (specific agonist activity): dose of 10 μM, H7TMB56 CHO cells (FIG. 10) versus mock cells (FIG. 11)
Procedure: The same expression vector as used in EXAMPLE 1 was transfected to CHO dhfr^− cells using Gene Transfer (Wako Pure Chemical Industries, Ltd.), which was cultured in nucleic acid-free medium to select transformants. […] The intracellular cAMP level was assayed using cAMP Screen Kit (Applied Biosystems, Inc.). […] Furthermore, the cAMP production promoting activities on H7TMB56 (FIG. 10) and mock cells (FIG. 11) were assayed with respect to various isoprenoid-related substances in a dose of 10 μM (1: isopentenyl pyrophosphate, 2: dimethylallyl pyrophosphate, 3: geranyl pyrophosphate, 4: farnesyl pyrophosphate, 5: geranylgeranyl pyrophosphate, 6: geraniol, 7: farnesol, 8: geranylgeraniol, 9: trans, trans-farnesol, 10: trans, trans-farnesyl bromide, 11: geranyl acetone, 12: geranyl acetate, 13: geranylamine and 14: geranyl chloride). As a result, the agonist activity specific to geranyl pyrophosphate was detected as well, in addition to farnesyl pyrophosphate and geranylgeranyl pyrophosphate (FIG. 10).
In a manner similar to EXAMPLE 2, the intracellular cAMP production promoting activity was assayed on 5 isoprenoid-related substances.

H7TMB56 [3] = molecular target: T1, H7TMB56; assay: CRE promoter luciferase reporter gene assay in HEK293 cells transiently expressing H7TMB56; conditions: HEK293 cells bearing the H7TMB56 gene (SEQ ID NO: 2) versus other receptor control; 2×10^−4 to 10^−5 M; 4 hours; FIGS. 5 to 7
From the text: The H7TMB56-specific stimulating activity by the isoprenoid-related substances was detected using as an indicator the expression level of reporter gene product (luciferase) produced by expression induction of CRE promoter.
HEK293 cells were suspended in growth medium (DMEM (Dulbecco's Modified Eagle Medium) (Gibco BRL) supplemented with 10% fetal bovine serum (Gibco BRL)) and plated on a 96-well plate of black well (Beckton-Dickinson, Inc.) coated with collagen in 1×10^5 cells/well. […]
The transfected HEK293 cells were washed with an assay buffer (DMEM supplemented with 0.1 % bovine serum albumin), and commercially available compounds containing farnesyl pyrophosphate (Sigma) and geranylgeranyl pyrophosphate (Sigma) diluted with the assay buffer were added to the cells, respectively, in 2×10^−4 to 10^−5 M, followed by incubation at 37° C. for 4 hours in 5% CO2. After the supernatant was discarded, 50 μl of PicaGene LT2.0 (Toyo Ink Mfg. Co., Ltd.) was added as a substrate for assaying the luciferase activity and a luminescence level of the luciferase was measured on a plate reader (ARVO sx Multi-Label Counter, Wallac, Inc.).

H7TMB56 [4] = molecular target: T1, H7TMB56; assay: activation (phosphorylation) of p44/42 MAP kinase in H7TMB56 expression CHO cells versus mock cells, western blotting; conditions: 0.1 μM, 0, 5, 10 minutes, FIG. 14
Procedure: H7TMB56 expression CHO cells and mock cells were plated on a 6-well plate in 3×10^5 cells/well, followed by incubation overnight. In order to make serum free, the medium was replaced by nucleic acid-free α-MEM medium supplemented with 0.1% BSA and incubation was further continued overnight. Immediately before the assay, pre-incubation was again carried out for 2 hours. After 0.1 μM of farnesyl pyrophosphate was added to the medium to initiate the treatment, the medium was removed by suction at regular time intervals and then a sample buffer for SDS-PAGE was added to terminate the reaction. SDS-PAGE was performed in a conventional manner to transfer the protein onto a nitrocellulose filter. Thereafter, phosphorylated p44/42 MAP kinase was detected following the instructions described in the manual of PhosphoPlus p44/42 MAPK (Thr202/Tyr204) Antibody Kit (Cell Signaling, Inc.).

T1 sequence (Q96LA9 whole entry, the tested form may be a part): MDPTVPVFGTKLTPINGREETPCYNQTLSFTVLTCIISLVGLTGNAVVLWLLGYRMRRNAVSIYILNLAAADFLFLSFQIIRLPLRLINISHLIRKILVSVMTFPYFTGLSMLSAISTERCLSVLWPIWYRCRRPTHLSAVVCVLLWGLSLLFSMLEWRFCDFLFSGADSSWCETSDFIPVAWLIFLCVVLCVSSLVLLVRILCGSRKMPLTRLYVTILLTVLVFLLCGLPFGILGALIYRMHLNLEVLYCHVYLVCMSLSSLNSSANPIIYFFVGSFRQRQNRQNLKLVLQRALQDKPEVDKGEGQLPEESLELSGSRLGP

SMILES	internalization of H7TMB56-GFP from cell membrane to cytoplasm (H7TMB56 [1])	intracellular cAMP production promoting activity, dose dependency (H7TMB56 [2])	agonist activity to H7TMB56 (cAMP production), specificity and dose dependency (H7TMB56 [2])	cAMP production promoting activity (specific agonist activity) (H7TMB56 [2])	luciferase activity (expression level of reporter gene product by CRE promoter) (H7TMB56 [3])	phosphorylation of p44/42 MAP kinase (H7TMB56 [4])
CC(C)=CCC/C(C)=C/CC/C(C)=C/COP(=O)(O)OP(=O)(O)O [farnesyl pyrophosphate]	internalization occurred	promoted the production of cAMP dose-dependently	confirmed the specificity in the agonist activities	detected	increased	phosphorylation of MAP kinase was detected
CC(C)=CCC/C(C)=C/CC/C(C)=C/CC/C(C)=C/COP(=O)(O)OP(=O)(O)O [geranylgeranyl pyrophosphate]		promoted the production of cAMP dose-dependently	confirmed the specificity in the agonist activities	detected	increased	
CC(C)=CCC/C(C)=C/COP(=O)(O)OP(=O)(O)O [geranyl pyrophosphate]		promoted the production of cAMP dose-dependently		detected		
